Reference: publication PMC6106897, “Biocatalytic synthesis of acylated derivatives of troxerutin: their bioavailability and antioxidant properties in vitro” (Microbial Cell Factories, 2018)

Key:
[1] = tested on: Caco-2 monolayers; experiment: Transport experiment in Caco-2 monolayers; assay type: in vitro ADME, human; conditions: Caco-2 monolayers
Procedure: (§1) The absorptions of troxerutin and its acylated derivatives was measured as described by Chen et al.. Caco-2 cells were cultured in DMEM supplemented with 10% FBS, 100 μg/mL streptomycin, and 100 U/mL penicillin at 37 °C in an atmosphere of 5% CO2 and the medium was changed every 2 days. Caco-2 cells used in this study were seeded onto 12-well translucent Transwell inserts (0.4 μm pore size, Corning Costar, Corning, NY, USA) at a density of 2.5 × 10^5 cells/mL and grown for 3 weeks. Transepithelial electrical resistance (TEER) and lucifer yellow were measured to detect the integrity of Caco-2 monolayers. TEER values were measured by using a voltammeter (Millicell ERS, Millipore, Bedford, MA, USA) and the amount of lucifer yellow transported to the basolateral side in a 2.5-h period was quantified by using a fluorospectrometer (Fluoroskan Ascent FL, Thermo Labsystems, Helsinki, Finland) at an excitation wavelength of 425 nm and emission wavelength of 530 nm. ALP activity was measured to detect the differentiation degree of Caco-2 monolayers by using an ALP Assay Kit.
(§2) Samples (100 μM, 0.5 mL) were placed on the apical (AP) side along with 1.5 mL of HBSS added to the basolateral (BL) side. […] The volume removed from the recipient side was replaced with fresh HBSS at 30, 60, 90, 120, and 150 min. The concentrations on the BL side were measured by HPLC. The apparent permeability coefficients (Papp, cm/s) were calculated according to the equation: Papp=dQ/dt×V/A×C0, where the dQ/dt is the permeability rate (μM/s) calculated from the slope of the amount of tested compounds transported versus time, V is the volume of the basolateral chamber (mL), A is the surface area of the inset (cm^2), and C0 is the initial concentration (μM) of the samples.

[2] = Transport experiment in Caco-2 monolayers; assay type: in vitro ADME, human; conditions: human, Caco-2
Procedure: as §1, §2

[3] = ORAC assay (fluorescence quenching induced by AAPH); conditions: 20 μM
Procedure: (§3) Scavenging abilities of hydroxyl and ABTS radicals, and ORAC were measured as described previously with some modifications. A 759S UV/Vis spectrophotometer (Lengguang Technology, Shanghai, China) was used to determine the absorbance of HO· at 532 nm and ABTS^·+ at 734 nm. ORAC analysis was conducted using a Fluoroskan Ascent microplate reader (Thermo Electron Corp., Waltham, MA, USA) at excitation and emission wavelengths of 485 and 530 nm, respectively. Trolox or vitamin C (VC) was used as a positive control, the sample concentration was 20 μM, and all experiments were repeated independently in triplicate.

[4] = tested on: erythrocyte lysate membrane lipid peroxidation; experiment: Lipid peroxidation (MDA release) after complete hemolysis; assay type: cell-based, sheep; conditions: erythrocytes completely hemolysed in cold ultrapure water, lysate treated with AAPH
[5] = Hydroxyl radical scavenging ability; conditions: sample concentration 20 μM
Procedure: as §3

[6] = ABTS radical scavenging ability; conditions: sample concentration 20 μM
Procedure: as §3

[7] = tested on: erythrocytes; experiment: Erythrocyte hemolysis induced by AAPH; assay type: cell-based, sheep; conditions: 20 μM sample, 200 mM AAPH, 2.5 h, 37 °C
Procedure: The hemolysis study was performed according to the method of Zhang et al. with some modifications. Erythrocytes from healthy sheep were centrifuged at 770×g for 10 min at 4 °C and washed three times with PBS. Equal amounts of erythrocyte suspension (20%, v/v) and sample solution (20 μM) were mixed and the mixture was incubated for 20 min at 37 °C. After adding 200 mM AAPH, incubation was continued for a further 2.5 h at the same temperature. The final reaction system was diluted with 8 mL PBS and then centrifuged at 1200×g for 10 min at 4 °C. The degree of hemolysis in the supernatant was determined by measuring the absorbance at 540 nm. To obtain the complete hemolysate, ultrapure water was added to the mixture. PBS was used as a negative control and Trolox was used as a positive control. These values were measured using a 756S UV/Vis spectrophotometer (Lengguang Technology). The treated supernatant was collected to measure the level of MDA. All experiments were performed independently in triplicate. The hemolysis rate was calculated using the equation: Hemolysis rate%=OD540of sample/OD540of complete hemolysis×100%.

[8] = 1-octanol/water partition coefficient (logP); assay type: physicochemical
Procedure: The 1-octanol/water partition coefficients of troxerutin and its propionyl derivatives were measured as previously described. Each compound was fully mixed with 1-octanol and then vigorously mixed with an equal amount of water. After equilibration for 30 min, the concentrations of compound in each layer were respectively measured by HPLC. The results are shown as common logarithms (logP).

[9] = after oral consumption; cited from earlier work

| Compound | UR (uptake ratio = Papp AP–BL/Papp BL–AP) [1] | Papp A→B at 150 min, 100 μM [2] [×10⁻⁶ cm/s] | Papp B→A at 150 min, 100 μM [2] [×10⁻⁶ cm/s] | Papp at 150 min, 100 μM [2] [×10⁻⁶ cm/s] | Capacity to inhibit fluorescence quenching (ORAC), rank order [3] | Inhibition ability for membrane lipid peroxidation (MDA release), rank order [4] | Free radical scavenging ability HO· [5] | Free radical scavenging ability ABTS·+ [6] | Inhibition effects on AAPH-induced erythrocyte hemolysis, rank order [7] | Inhibition of AAPH-induced erythrocyte hemolysis [7] | logP at 30 min [8] | Bioavailability [9] [%] |
| --- | --- | --- | --- | --- | --- | --- | --- | --- | --- | --- | --- | --- |
| C[C@@H]1O[C@@H](OC[C@H]2O[C@@H](Oc3c(-c4ccc(O)c(O)c4)oc4cc(O)cc(O)c4c3=O)[C@H](O)[C@@H](O)[C@@H]2O)[C@H](O)[C@H](O)[C@H]1O [Rutin, rutin] | 1.00 ± 0.05 | 0.06 ± 0.01 | 0.06 ± 0.02 | 0.06 | – | – | – | – | – | – | – | – |
| C[C@@H]1O[C@@H](OC[C@H]2O[C@@H](Oc3c(-c4ccc(OCCO)c(OCCO)c4)oc4cc(OCCO)cc(O)c4c3=O)[C@H](O)[C@@H](O)[C@@H]2O)[C@H](O)[C@H](O)[C@H]1O [Troxerutin, troxerutin] | – | 0.34 ± 0.05 | 0.35 ± 0.03 | – | troxerutin ≈ TME > TDE | troxerutin ≈ TME > TDE | 97.1 ± 2.7 ab % | 96.8 ± 4.1 ab % | troxerutin < TME ≈ TDE | effectively inhibited | – | – |
| CCC(=O)OCCOc1cc(O)c2c(=O)c(OC3OC(COC4OC(C)C(O)C(O)C4O)C(O)C(O)C3O)c(-c3ccc(OCCOC(=O)CC)c(OCCO)c3)oc2c1 (centres unmarked) [TDE] | – | 1.54 ± 0.17 | 1.53 ± 0.21 | – | troxerutin ≈ TME > TDE | troxerutin ≈ TME > TDE | 89.7 ± 1.8 c % | 81.5 ± 2.1 c % | troxerutin < TME ≈ TDE | effectively inhibited | 1.51 ± 0.05 | – |
| CC(C)NCC(O)COc1cccc2ccccc12 (centres unmarked) [Propranolol] | – | 48.9 ± 3.3 | 44 ± 2.98 | – | – | – | – | – | – | – | – | > 90 |
| O=C1O[C@H]([C@@H](O)CO)C(O)=C1O [VC, vitamin C, reference compound] | – | – | – | – | – | – | 99.3 ± 0.05 a % | 100 ± 0.02 a % | – | – | – | – |
| CCC(=O)OCCOc1ccc(-c2oc3cc(OCCO)cc(O)c3c(=O)c2OC2OC(COC3OC(C)C(O)C(O)C3O)C(O)C(O)C2O)cc1OCCO (centres unmarked) [TME] | – | 0.99 ± 0.12 | 1.05 ± 0.12 | – | troxerutin ≈ TME > TDE | troxerutin ≈ TME > TDE | 95.2 ± 3.5 b % | 90.4 ± 3.0 b % | troxerutin < TME ≈ TDE | effectively inhibited | < 0 | – |
